Laboratory results taken from patent publication US20080248548A1, “MODULATION OF PROTEIN FUNCTIONALITIES” (priority 2007, published 2008).

Target: T1, p38 MAP kinase (Homo sapiens, UniProt Q16539)
T1 construct: made in house; host or cells: E. coli
Assay: P38 MAP kinase binding assay (competition with fluorescent probe SKF 86002)
Details: inhibition assigned as time-dependent if the IC50 values decrease with the reaction time (more than two-fold in four hours)
Experimental: Thus, the ability of a small molecule to block fluoroprobe binding provides an experimental readout of binding to the switch control pocket. […] The reaction was initiated by addition of the enzyme. […] By comparison of rfu (relative fluorescence unit) values with that of a control (in the absence of small molecule modulators), the percentage of inhibition at each concentration of the small molecules were calculated. IC50 values for the small molecule modulators were calculated from the % inhibition values obtained at a range of concentrations of the small molecule modulators using Prism. When time-dependent inhibition was assessed, the plate was read at multiple reaction times such as 0.5, 1, 2, 3, 4 and 6 hours. The IC50 values were calculated at each time point. An inhibition was assigned as time-dependent if the IC50 values decrease with the reaction time (more than two-fold in four hours).

T1 sequence (Q16539 whole entry): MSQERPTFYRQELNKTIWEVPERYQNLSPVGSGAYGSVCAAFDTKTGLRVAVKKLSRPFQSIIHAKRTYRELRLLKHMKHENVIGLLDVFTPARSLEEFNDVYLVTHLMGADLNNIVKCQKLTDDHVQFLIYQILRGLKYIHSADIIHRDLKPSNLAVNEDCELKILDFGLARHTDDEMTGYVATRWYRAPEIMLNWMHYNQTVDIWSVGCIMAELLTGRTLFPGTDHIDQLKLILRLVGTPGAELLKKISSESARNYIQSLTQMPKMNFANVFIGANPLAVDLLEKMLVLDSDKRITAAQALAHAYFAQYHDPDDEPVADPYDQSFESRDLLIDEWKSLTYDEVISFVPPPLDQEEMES

SMILES | Time-dependent
CC1(C(=O)O)CC2(C)CC(C)(C1)C(=O)N(Cc1cccc(-n3nc(C(C)(C)C)cc3NC(=O)Nc3cccc4ccccc34)c1)C2=O (stereo not shown) [Example 11] | No
CC1(C(=O)O)CC2(C)CC(C)(C1)C(=O)N(Cc1cccc(-n3nc(C(C)(C)C)cc3NC(=O)Nc3ccc(Cl)cc3)c1)C2=O (stereo not shown) [Example 12] | No
CC(C)(C)c1cc(NC(=O)Nc2cccc3ccccc23)n(-c2cccc(CC(=O)N3CCOCC3)c2)n1 [Example 21, 1-{3-tert-butyl-1-[3-(2-morpholino-2-oxoethyl)phenyl)-1H-pyrazol-5-yl}-3-(naphthalene-1-yl)urea] | Yes
CC(C)(C)c1cc(NC(=O)Nc2cccc3ccccc23)n(-c2ccc(CN)cc2)n1 [Example 45, 1-{3-tert-butyl-1-[4-(aminomethyl)phenyl]-1H-pyrazol-5-yl}-3-(naphthalen-1-yl)urea] | No
